# Laboratory results as given in patent US10669252B2, “Benzazepine derivative, preparation method, pharmaceutical composition and use thereof” (SHANGHAI DE NOVO PHARMATECH CO., LTD., priority 2016, dated 2020).
# Target: T1, TLR8 (Homo sapiens, UniProt Q9NR97)
# T1 construct: host or cells: HEK293 (HEK-BLUE-hTLR8)
# T1 sequence (Q9NR97 27-1041): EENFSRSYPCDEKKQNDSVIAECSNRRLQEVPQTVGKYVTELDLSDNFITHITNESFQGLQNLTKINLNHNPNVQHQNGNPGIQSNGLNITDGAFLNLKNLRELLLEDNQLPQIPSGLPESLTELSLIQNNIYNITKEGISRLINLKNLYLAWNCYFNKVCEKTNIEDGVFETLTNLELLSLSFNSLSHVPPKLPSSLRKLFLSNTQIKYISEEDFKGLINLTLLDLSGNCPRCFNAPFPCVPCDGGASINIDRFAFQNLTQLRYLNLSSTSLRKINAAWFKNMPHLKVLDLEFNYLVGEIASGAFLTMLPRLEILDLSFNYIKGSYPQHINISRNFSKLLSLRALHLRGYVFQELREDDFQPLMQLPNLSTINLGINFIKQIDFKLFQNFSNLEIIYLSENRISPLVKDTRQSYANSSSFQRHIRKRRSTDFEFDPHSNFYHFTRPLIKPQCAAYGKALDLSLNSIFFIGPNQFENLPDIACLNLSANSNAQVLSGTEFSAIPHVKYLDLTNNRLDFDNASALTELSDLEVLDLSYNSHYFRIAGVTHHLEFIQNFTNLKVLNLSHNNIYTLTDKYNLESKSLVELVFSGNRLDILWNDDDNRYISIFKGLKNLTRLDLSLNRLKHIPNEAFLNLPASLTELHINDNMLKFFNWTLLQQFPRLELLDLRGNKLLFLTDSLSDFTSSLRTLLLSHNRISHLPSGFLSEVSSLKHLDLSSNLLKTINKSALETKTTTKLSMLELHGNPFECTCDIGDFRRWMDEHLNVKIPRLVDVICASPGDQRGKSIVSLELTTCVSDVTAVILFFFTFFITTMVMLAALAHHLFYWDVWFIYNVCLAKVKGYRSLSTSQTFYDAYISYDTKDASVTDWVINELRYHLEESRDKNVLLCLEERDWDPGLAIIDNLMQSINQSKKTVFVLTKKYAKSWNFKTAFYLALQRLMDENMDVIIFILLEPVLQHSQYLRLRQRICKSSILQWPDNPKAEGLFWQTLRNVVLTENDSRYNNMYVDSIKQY
# Experiment: TLR8 cell based assay (HEK-BLUE-hTLR8, SEAP reporter linked to NF-κB activation)
# Settings: HEK-BLUE-hTLR8 cells
# Method: In this assay, the bioactivity of compound of formula Iw as measured using a cell based assay. The assay was performed in human embryonic kidney cells (HEK293) expressing TLR8 or other TLR family members such as TLR4, TLR7 and TLR9 (for selectivity screens). The activity of specific TLR agonists was assessed using the secretory embryonic alkaline phosphatase (SEAP) reporter gene that is linked to NF-κB activation in response to TLR stimulation. The SEAP activity was measured using the Quanti-Blue substrate (InvivoGen) after TLR agonist treatment.
# The detailed experimental method is as follow:
# HEK-BLUE-hTLR8 cell line was purchased from InvivoGen. The cells were cultured in Dulbecco's Modified Eagle's Media containing 4.5 g/L […] (Sigma-Aldrich) and 10% FBS. The cells were cultured at 37° C., 95% humidity and 5% CO2.
# Test concentrations of the compounds ranged from 0.5 nM to 15 μM with 10 points. A known TLR8 agonist was added as positive control and 1 μl of DMSO was added as negative control.
# The cells were prepared as follows: The cells were removed from the incubator and growth medium was discarded. The cells were gently rinsed with pre-warmed 10 ml PBS for a T-150 flask. 12 ml pre-warmed growth medium was added, and the cells were detached by tapping the flask. Cell clumps were dissociated by gently pipetting up and down. The cells were counted. Single cell suspension was prepared at 200,000 cells per ml in growth medium and 200 μl of the cell suspension (40,000 cells per well) were immediately added to each well of the plate. The final DMSO concentration of each well was 0.5%.
# The cells were cultured and treated with the compounds at 37° C., 5% CO2 for 24 h.
# 20 μL of the supernatant of each well were added to 180 μL of QUANTI-Blue, and the plates were incubated at 37° C. for 1.5 hour. Optical density was measured using a spectrophotometer at 650 nm (OD data). Activivation was calculated by using the equation below: Activivation %=(Compound OD mean value−DMSO OD mean value)/(positive control OD mean value−DMSO OD mean value)×100
# The data were analyzed using the GraphPad to get EC50 values and fitting dose response curves of the compounds.
# [1] = 24 h treatment, SEAP/QUANTI-Blue readout
SMILES,EC50 [1] [nM],EC50 (bound stated) [nM]
CCCN(CCC)C(=O)C1=Cc2c(F)cc(-c3ccc4c(=O)n(CCS(C)(=O)=O)ncc4c3)cc2N=C(N)C1 [Compound 1-10-2],< 100,–
CCCN(CCC)C(=O)C1=Cc2ccc(-c3ccc4c(=O)n(Cc5ccccn5)ncc4c3)cc2N=C(N)C1 [Compound 1-8-20],< 100,–
CCCN(CCC)C(=O)C1=Cc2ccc(-c3ccc4c(=O)n(Cc5ncnn5C)ccc4c3)cc2N=C(N)C1 [Compound 1-2-41],< 100,< 10
[2H]c1cc(-c2ccc3c(=O)n(Cc4ncccn4)ncc3c2)cc2c1C=C(C(=O)N(CCC)CCC)CC(N)=N2 [Compound 2-3-3],< 100,< 10
CCCN(CCC)C(=O)C1=Cc2c(C)cc(-c3ccc4c(=O)n(Cc5ncccn5)ncc4c3)cc2N=C(N)C1 [Compound 2-3-2],< 100,< 10
CCCN(CCC)C(=O)C1=Cc2ccc(-c3ccc4c(c3)CCN(CC)C4=O)cc2N=C(N)C1 [Compound 1-4-1],100 to 1000,–
CCCN(CCC)C(=O)C1=Cc2ccc(-c3ccc4c(=O)n(Cc5ccccc5)ncc4c3)cc2N=C(N)C1 [Compound 1-8-19],100 to 1000,–
CCCN(CCC)C(=O)C1=Cc2ccc(-c3ccc4c(=O)n(CC(C)(C)O)c(=O)n(C)c4c3)cc2N=C(N)C1 [Compound 1-9-5],100 to 1000,–
CCCN(CCC)C(=O)C1=Cc2ccc(-c3ccc4c(=O)n(CC(=O)NCC)ccc4c3)cc2N=C(N)C1 [Compound 1-2-25],< 100,–
CCCN(CCC)C(=O)C1=Cc2c(Cl)cc(-c3ccc4c(=O)n(Cc5ncccn5)ncc4c3)cc2N=C(N)C1 [Compound 2-3-1],< 100,–
CCCN(CCC)C(=O)C1=Cc2c(F)cc(-c3ccc4c(=O)n(CC(=O)NC)cnc4c3)cc2N=C(N)C1 [Compound 1-10-8],< 100,–
CCCN(CCC)C(=O)C1=Cc2c(F)cc(-c3ccc4c(=O)n(CCS(C)(=O)=O)c(=O)n(C)c4c3)cc2N=C(N)C1 [Compound 1-10-10],100 to 1000,–
CCCN(CCC)C(=O)C1=Cc2ccc(-c3ccc4c(=O)n(CCCS(C)(=O)=O)ncc4c3)cc2N=C(N)C1 [Compound 1-8-6],< 100,< 10
CCCN(CCC)C(=O)C1=Cc2ccc(-c3ccc4c(=O)n(CCc5ccccn5)ccc4c3)cc2N=C(N)C1 [Compound 1-2-50],100 to 1000,–
CCCN(CCC)C(=O)C1=Cc2ccc(-c3ccc4c(=O)n(Cc5nnn[nH]5)ccc4c3)cc2N=C(N)C1 [Compound 1-2-38],1000 to 10000,–
CCCN(CCC)C(=O)C1=Cc2ccc(-c3ccc4c(=O)n(CC(C)(C)O)cnc4c3)cc2N=C(N)C1 [Compound 1-7-5],< 100,–
CCCN(CCC)C(=O)C1=Cc2ccc(-c3ccc4c(=O)[nH]ccc4c3)cc2N=C(N)C1 [Compound 1-1-1],1000 to 10000,–
CCCN(CCC)C(=O)C1=Cc2ccc(-c3ccc4c(=O)n(CC[S+](C)[O-])ncc4c3)cc2N=C(N)C1 (stereo not shown) [Compound 1-8-11],< 100,–
CCCN(CCC)C(=O)C1=Cc2ccc(-c3ccc4c(=O)n(CCNS(N)(=O)=O)ccc4c3)cc2N=C(N)C1 [Compound 1-2-20],100 to 1000,–
CCCN(CCC)C(=O)C1=Cc2ccc(-c3ccc4c(=O)n(CCO)ccc4c3)cc2N=C(N)C1 [Compound 1-2-6],< 100,–
CCCN(CCC)C(=O)C1=Cc2c(F)cc(-c3ccc4c(=O)n(CC(=O)NC)ncc4c3)cc2N=C(N)C1 [Compound 1-10-6],< 100,–
CCCN(CCC)C(=O)C1=Cc2ccc(-c3ccc4c(=O)n(Cc5nnn(C)n5)ccc4c3)cc2N=C(N)C1 [Compound 1-2-39],< 100,< 10
CCCN(CCC)C(=O)C1=Cc2ccc(-c3ccc4c(=O)n(CCNS(C)(=O)=O)cnc4c3)cc2N=C(N)C1 [Compound 1-7-6],100 to 1000,–
CCCN(CCC)C(=O)C1=Cc2ccc(-c3ccc4c(=O)n(CCP(C)(=O)OCC)ncc4c3)cc2N=C(N)C1 (stereo not shown) [Compound 1-8-18],< 100,–
CCCN(CCC)C(=O)C1=Cc2c(F)cc(-c3ccc4c(=O)n(CC(=O)NC)ccc4c3)cc2N=C(N)C1 [Compound 1-10-3],< 100,–
CCCN(CCC)C(=O)C1=Cc2ccc(-c3ccc4c(=O)n(CCP(C)(=O)OCC)ccc4c3)cc2N=C(N)C1 (stereo not shown) [Compound 1-2-11],< 100,–
